Reference: ChEMBL document CHEMBL4651402, “Screening of ~5500 FDA-approved drugs and clinical candidates for anti-SARS-CoV-2 activity” (2021)
Structures can show the parent of a compound that is named as a salt.

Tested on: SARS-CoV-2
Assay: microbe, parasite or virus in culture
Details: Severe acute respiratory syndrome coronavirus 2, Vero C1008, 48 h

SMILES	IC50 [µM]	IC50 (read-out: pIC50 (converted)) [µM]
CN1C(=O)OC(C)(C)C1=O [TRIMETHADIONE]	> 20	> 20
COc1cc(NCCCC(C)N)c2ncccc2c1 (configuration not stated) [QUINOCIDE]	> 20	> 20
FC(F)(F)c1ccc2c(c1)N(CCCN1CCN(C3CC3)CC1)c1ccccc1S2 [CYCLOPHENAZINE]	> 20	> 20
CCn1ncnc1COc1nn2c(-c3ccccc3F)nnc2cc1C(C)(C)C [MK-0777]	> 20	> 20
NC(C(=O)NC1C(=O)N2C(C(=O)O)=C(CSc3c[nH]nn3)CSC12)c1ccc(O)cc1 (configuration not stated)	> 20	> 20
Cc1cc(C)cc([C@@H]2CCCN2Cc2ccc(Oc3ccc(C(N)=O)cc3F)cc2)c1 [ATICAPRANT]	> 20	> 20
COc1ccc2c(c1OC)C(=O)O[C@@H]2[C@H]1c2cc3c(cc2CCN1C)OCO3 [HYDRASTINE]	> 20	> 20
O=C(/C=C/c1cccnc1)NCCCCC1CCN(C(=O)c2ccccc2)CC1 [DAPORINAD]	> 20	> 20
ClCCN(Cc1ccccc1)Cc1ccccc1	> 20	> 20
CCCCCCCCCCCCCC(=O)O [MYRISTIC ACID]	> 20	> 20
NC(=O)OCCCc1ccccc1 [PHENPROBAMATE]	> 20	> 20
NC(C=O)C(O)C(O)C(O)CO (configuration not stated)	> 20	> 20
CC(=O)OC(C)C[N+](C)(C)C (configuration not stated) [METHACHOLINE]	> 20	> 20
COC1=C[C@@H]2[C@@H]3Cc4ccc(OC)c(O)c4[C@]2(CCN3C)CC1=O [SINOMENINE]	> 20	> 20
C[C@@H]1C(=O)O[C@H]2[C@H](O)[C@]34[C@@H]5OC(=O)[C@]3(O[C@@H]3OC(=O)[C@H](O)C34C(C(C)(C)C)C5O)[C@@]12O (some centres not stated)	> 20	> 20
COC1COCCC1N[C@@H]1CC[C@@](C(=O)N2CCc3ncc(C(F)(F)F)cc3C2)(C(C)C)C1 (some centres not stated)	> 20	> 20
N[C@@H](CCC(=O)O)C(=O)O [GLUTAMIC ACID]	> 20	> 20
CC(NCCc1ccc(O)cc1)C(O)c1ccc(O)cc1 (configuration not stated) [RITODRINE HYDROCHLORIDE]	> 20	> 20
CN[C@@H](C)CC1CCCCC1 [LEVOPROPYLHEXEDRINE]	> 20	> 20

SMILES	IC50 [µM]	IC50 (read-out: pIC50 (converted)) [µM]
FC(F)(F)c1cccc(C2=CCN(CCc3ccc4ccccc4c3)CC2)c1 [XALIPRODEN]	> 20	> 20
CC(C)/N=C/Nc1ccc(-c2c[nH]cn2)cc1 [MIFENTIDINE]	> 20	> 20
Oc1c(I)cc(Cl)c2cccnc12 [CLIOQUINOL]	> 20	> 20
CC(C1=C(CCN(C)C)Cc2ccccc21)c1ccccn1 (configuration not stated)	> 20	> 20
CS(=O)(=O)Nc1cc2occ(NC=O)c(=O)c2cc1Oc1ccccc1 [IGURATIMOD]	> 20	> 20
CC(C)CCCC(C)C1CCC2C3CC[C@H]4CCCC[C@]4(C)C3CCC12C (some centres not stated)	> 20	> 20
COC(=O)/C=C/C(=O)O [MONOMETHYL FUMARATE]	> 20	> 20
Nc1ncn([C@H]2C[C@H](O)[C@@H](CO)O2)c(=O)n1 [DECITABINE]	> 20	> 20
CN(C)CCN1C(=O)CC(c2ccccc2)Sc2ccccc21 (configuration not stated) [THIAZESIM]	> 20	> 20
CS(=O)(=O)c1ccc(-c2cn3ccccc3n2)cc1 [ZOLIMIDINE]	> 20	> 20
CS(=O)(=O)OC[C@H](O)[C@@H](O)COS(C)(=O)=O [TREOSULFAN]	> 20	> 20
CC1(O)/C=C\C=C(\CO)C2CC(C)(C)C2(O)CC1 (configuration not stated)	> 20	> 20
CCOC(=O)C1(c2ccccc2)CCN(CCc2ccc(N)cc2)CC1 [ANILERIDINE]	> 20	> 20
COc1ccccc1N1CCN(CC(O)COc2cc(OC)c(OC)c(OC)c2)CC1 (configuration not stated) [ENCIPRAZINE]	> 20	> 20
Cc1nc2cc(C(c3ccccc3)n3ccnc3)ccc2[nH]1 (configuration not stated) [IRTEMAZOLE]	> 20	> 20
CC(=O)N1C[C@H](O)C[C@H]1C(=O)O [OXACEPROL]	> 20	> 20
C#C[C@]1(O)C=C[C@H]2[C@@H]3CCC4=CC(=O)CC[C@@H]4[C@H]3CC[C@@]21CC [GESTODENE]	> 20	> 20
CC(=O)OCC(=O)[C@@]1(O)[C@H](C)CC2C3CCC4=CC(=O)C=CC4(C)[C@@]3(F)C(O)CC21C (some centres not stated)	> 20	> 20
CN(C(=O)c1c(O)c2ccccc2n(C)c1=O)c1ccccc1 [ROQUINIMEX]	> 20	> 20

SMILES	IC50 [µM]	IC50 (read-out: pIC50 (converted)) [µM]
OC[C@@H]1CCCN2CCCCC12 (some centres not stated)	> 20	> 20
COC(=O)Nc1nc2cc(Sc3ccccc3)ccc2[nH]1 [FENBENDAZOLE]	> 20	> 20
C/C=C/C[C@@H](C)C(=O)[C@H]1C(=O)N[C@@H](C(C)C)C(=O)N(C)CC(=O)N(C)[C@@H](CC(C)C)C(=O)N[C@@H](C(C)C)C(=O)N(C)[C@@H](CC(C)C)C(=O)N[C@@H](C)C(=O)N[C@H](C)C(=O)N(C)[C@@H](CC(C)C)C(=O)N(C)[C@@H](CC(C)C)C(=O)N(C)[C@@H](C(C)C)C(=O)N1C [VALSPODAR]	> 20	> 20
C/C=C/C/C=C/CCC(=O)[C@H]1O[C@H]1C(N)=O [CERULENIN]	> 20	> 20
COc1ccccc1O [GUAIACOL]	> 20	> 20
CCn1nc(C(=O)O)c(=O)c2cc3c(cc21)OCO3 [CINOXACIN]	> 20	> 20
C[C@@]1(c2nc3cccc(C(N)=O)c3[nH]2)CCCN1	> 20	> 20
Oc1cccc(O)c1O [PYROGALLOL]	> 20	> 20
Cc1ccc(-n2nc(C(C)(C)C)cc2NC(=O)Nc2ccc(OCCN3CCOCC3)c3ccccc23)cc1 [DORAMAPIMOD]	> 20	> 20
COc1ccc(CC(C)N)cc1 (configuration not stated) [PARA-METHOXYAMPHETAMINE]	> 20	> 20
CCN[C@H]1CN(CCCOC)S(=O)(=O)c2sc(S(N)(=O)=O)cc21 [BRINZOLAMIDE]	> 20	> 20
COc1cc2c(cc1OC)[C@H]1CC(=O)[C@H](CC(C)C)CN1CC2	> 20	> 20
CC(C)[C@H](N)C(=O)N1CCC[C@H]1B(O)O [TALABOSTAT]	> 20	> 20
CC1(C)C(=O)Nc2cc3[nH]c(-c4ccncc4)nc3cc21 [ADIBENDAN]	> 20	> 20
Cc1cccc(Oc2cnc(=O)[nH]c2)c1 [TOLIMIDONE]	> 20	> 20
O=c1oc2ccccc2c(O)c1Cc1c(O)c2ccccc2oc1=O [DICUMAROL]	> 20	> 20
CC(=O)OC1CCC2(C)C3CCC4(C)C(CC5OC6(CCC(C)CO6)C(C)C54)C3CC[C@H]2C1 (some centres not stated)	> 20	> 20
CCCCN(CCCC)CCCOC(=O)c1ccc(N)cc1 [BUTACAINE]	> 20	> 20
